Data taken from patent US20220354835A1, “COMPOUNDS FOR DEGRADING TAU PROTEIN AGGREGATES AND USES THEREOF” (Aprinoia Therapeutics Limited, priority 2019, published 2022).

Key:
[1] = molecular target: T1, heparin-induced aggregated tau (aTau), full-length 2N4R human Tau (Homo sapiens, UniProt P10636); assay: PBB5 competition assay; type: binding; settings: 0.12 μM aTau
T1 construct: transformed with a full-length 2N4R tau expression plasmid; made in house; host or cells: E. coli BL21
Procedure: (§1) (A) Expression and purification of human Tau: 1 mM IPTG (Sangon Biotech, Cat. No A100487) was used to induce production of tau by bacteria (BL21, Invitrogen, Cat. No C600003) transformed with a full-length 2N4R tau expression plasmid. After 3 hours, cell pellet was resuspended in lysis buffer (100 mM PIPES, 1 mM EGTA, 1 mM MgSO4, pH 6.8) and lysed by sonication followed by centrifugation (15,000 rpm, 15 min, 4° C.). The supernatant was then placed in a boiling water bath for 20 min, followed by centrifugation (15,000 rpm, 15 min, 4° C.). Supernatant was loaded onto a Q-Sepharose® Fast Flow column (GE healthcare, Cat. No 17-0510-01), the flow-through fraction was loaded onto an SP-Sepharose® Fast Flow column (GE healthcare, Cat. No 17-0729-01), and tau protein was eluted with elution buffer (100 mM PIPES, 1 M NaCl, 1 mM EGTA, 1 mM MgSO4, 0.2 M NaCl, pH 6.8). Collected fractions of tau-containing eluates were pooled, concentrated and dialyzed against HEPES buffer (25 mM HEPES, 0.1 mM EDTA, 0.5 mM DTT, 100 mM NaCl, pH 7.2) and stored at −80° C. in small aliquots until use. Protein concentration was determined by UV absorption.
(§2) (B) Preparation of heparin-induced aggregated tau (aTau): 2 μM of tau prepared in 30 mM Tris-HCl, pH 7.5 buffer was incubated in tube with 15 μM heparin (Sigma, Cat. No H3149) at 37° C. for 24 hours.
(E) PBBS competition assay: 2 μM of aTau was diluted to 0.12 μM by […] (pH 6.8) and then incubated with 0.1 μM 2-(4-(2-(methylamino)pyridine-5-yl)-1,3-butadiene-1-yl)benzothiazole-6-ol (PBB5) and serially diluted compound (three-fold serial dilution, from 10 to 0.00017 μM) in a 96-well plate (Corning, Cat. No 3573) at 37° C. for 1 hour. Fluorescence intensity (excitation/emission=530/690 nm) of PBB5 was read by microplate spectrometer (EnSpire 2300, PerkinElmer). Percentage of competition was calculated using the following equation: (Max−well of compound alone)/(Max−Min)*100%, where Max=(Tau+PBB5) signals−(buffer+PBB5) signals; and Min=(buffer+PBB5) signals−(buffer+PBB5) signals.
The IC50 value of each compound was calculated with GraphPad Prism software using the “4 Parameter Logistic Model or Sigmoidal Dose-Response Model”:
Y=Bottom+(Top−Bottom)/(1+(IC50/×)^HillSlope)

[2] = In vivo pharmacokinetic study of plasma and brain tissue; settings: mice, 1 mg/kg, intravenous
Procedure: To determine whether the compounds of the present disclosure are capable of crossing the blood brain barrier (BBB), example compound 160313 was administered to mice in a pharmacokinetic study (1 mg/kg, intravenous) of plasma and brain tissue.
Animal Husbandry: Mice were housed at animal room environment with ventilation 15 times/hour, lighting 12 hours/day, temperature 20° C. to 24° C. and humidity 40% to 70%. The study rooms were disinfected and cleaned prior to the start of the study and the operation area was cleaned after each dosing or sampling during the study conduct. All animals had free access to food and water during the study. The animals had access to Certified Rodent Diet and water ad libitum. The nutritional composition and levels of contaminants of the diet and impurities and contaminants of the water were monitored by third organization. The health status of the animals was evaluated in accordance with accepted animal husbandry procedures and deemed suitable for experimental use. […]
Bioanalytical Method Development: The concentrations of compound in plasma and brain samples were determined using a liquid chromatography with tandem mass spectrometry (LC-MS/MS) based method.

[3] = molecular target: T1, heparin-induced aggregated tau (aTau), full-length 2N4R human Tau; assay: In vitro fluorometric aTau binding assay; settings: 0.04 μM aTau, serially diluted compound 10 to 0.00017 μM, 37° C. 1 hour, fluorescence
Procedure: as §1, §2
(D) In vitro fluorometric aTau binding assays: 2 μM aTau was diluted to 0.04 μM with 30 mM Tris-HCl (pH 6.8), and then incubated with serially diluted compound (three-fold serial dilutions, from 10 to 0.00017 μM) in a 96-well plate (Corning, Cat. No 3573) at 37° C. for 1 hour. Fluorescence intensity (excitation/emission=370/500 nm) of APN-0729 was read by microplate spectrometer (EnSpire 2300, PerkinElmer). Compound Kd values were calculated using the following equation: Y=Bmax* X (Kd+X), where X is the concentration of compound; Y is the fluorescence signal of (compound+aTau)−(compound+DMSO); and Bmax is the maximum signal.

T1 sequence (P10636 1-441 isoform P10636-8): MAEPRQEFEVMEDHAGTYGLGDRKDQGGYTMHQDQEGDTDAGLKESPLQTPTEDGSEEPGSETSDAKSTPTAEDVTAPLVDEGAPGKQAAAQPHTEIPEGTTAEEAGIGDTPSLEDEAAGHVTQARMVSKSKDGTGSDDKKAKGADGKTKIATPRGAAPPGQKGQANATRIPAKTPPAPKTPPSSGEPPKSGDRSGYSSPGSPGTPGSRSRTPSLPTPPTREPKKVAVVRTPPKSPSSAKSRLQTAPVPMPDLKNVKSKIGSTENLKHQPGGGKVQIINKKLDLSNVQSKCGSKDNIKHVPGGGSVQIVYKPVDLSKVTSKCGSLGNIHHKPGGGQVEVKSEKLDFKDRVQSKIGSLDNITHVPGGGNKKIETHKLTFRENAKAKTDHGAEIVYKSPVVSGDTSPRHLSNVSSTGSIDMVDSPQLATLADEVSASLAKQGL

CN(C)c1ccc(-c2ccc(-c3nc4ccc(NCCOCCOc5ccc6c(c5)CN(C5CCC(=O)NC5=O)C6=O)cc4s3)cc2)cn1 (stereo not shown) [Compound 160313, 3-[6-[2-[2-[[2-[4-[6-(dimethylamino)pyridin-3-yl]phenyl]-1,3-benzothiazol-6-yl]amino]ethoxy]ethoxy]-3-oxo-1H-isoindol-2-yl]piperidine-2,6-dione]
IC50 ([1]; 0.1 μM PBB5, 37° C. 1 hour, PBB5 fluorescence 530/690 nm): 220 nM | Emax ([1]; 0.1 μM PBB5, compound up to 10 μM, read-out: Competition Assay with PBB5: Bmax (%)): 64% | Cmax, Brain [2]: 111 ng/mL | Kd [3]: 80 nM
